Data on 43 compounds can be found in patent US20250171459A1, “2-METHYL-4',5'-DIHYDROSPIRO[PIPERIDINE-4,7'-THIENO[2,3-C]PYRAN] DERIVATIVES AS INHIBITORS OF APOL1 AND METHODS OF USING SAME” (Vertex Pharmaceuticals Incorporated, priority 2022, published 2025).

The target of this assay is T1, APOL1 (Homo sapiens, UniProt O14791).
T1 sequence (O14791 1-398 S342G/I384M): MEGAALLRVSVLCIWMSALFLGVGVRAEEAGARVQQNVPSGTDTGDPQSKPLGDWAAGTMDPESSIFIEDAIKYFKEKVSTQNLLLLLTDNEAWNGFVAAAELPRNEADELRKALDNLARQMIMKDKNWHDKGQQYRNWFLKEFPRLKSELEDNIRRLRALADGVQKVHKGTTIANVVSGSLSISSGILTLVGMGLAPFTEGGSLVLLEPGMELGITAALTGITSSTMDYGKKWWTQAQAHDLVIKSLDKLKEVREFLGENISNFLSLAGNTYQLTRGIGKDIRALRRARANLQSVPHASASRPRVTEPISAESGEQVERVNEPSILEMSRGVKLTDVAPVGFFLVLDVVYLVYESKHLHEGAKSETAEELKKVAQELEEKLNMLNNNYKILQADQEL
Put plainly: MultiTox-Fluor Multiplex Cytotoxicity Assay in tet-inducible APOL1 T-REx-HEK293 cells (cell rescue, ratio of dead to live cells). The format is cell-based. Particulars: tet-inducible transgenic APOL1 T-REx-HEK293 cell lines, 50 ng/mL tet, 24 hours; read-out: IP50 (i.e., IC50 for cell proliferation). A digest of the protocol:
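T-REx-HEK293 cells with tet-inducible APOL1 were treated with compound (10 μM top, 10-point 3-fold dilution, duplicate) plus 50 ng/mL tetracycline for 24 h at 37° C, in DMEM with 2% tet-free FBS. MultiTox-Fluor protease signals gave a dead/live ratio, normalized to no tet (100% viability) and tet alone (0%).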

As to `CCc1cc2c(s1)CCO[C@@]21CCN(C[C@H]2C[C@@H](NC(=O)C3CCCC(C)(C)C3)C2)[C@@H](C)C1` (stereo partly shown) [Compound 312], the IC50 is under 100 nM. As to `CCc1cc2c(s1)CCO[C@@]21CCN(C[C@H]2C[C@@H](NC(=O)Cc3cc(C)cc(F)c3)C2)[C@@H](C)C1` [Compound 313], the IC50 was under 100 nM. As for `CCc1cc2c(s1)CCO[C@@]21CCN(C[C@H]2C[C@@H](NC(=O)CC3CCC(F)(F)CC3)C2)[C@@H](C)C1` [Compound 314], the IC50 is under 100 nM. On to `CCc1cc2c(s1)CCO[C@@]21CCN(C[C@H]2C[C@@H](NC(=O)C3CCOC(C)(C)C3)C2)[C@@H](C)C1` (stereo partly shown) [Compound 315], for which the IC50 was under 100 nM. On to `CCc1cc2c(s1)CCO[C@@]21CCN(C[C@H]2C[C@@H](NC(=O)c3cnc4c(c3)CCC4)C2)[C@@H](C)C1` [Compound 316], for which the IC50 is under 100 nM.

For `CCc1cc2c(s1)CCO[C@@]21CCN(C[C@H]2C[C@@H](NC(=O)c3ccn(CC(C)C)n3)C2)[C@@H](C)C1` [Compound 317], the IC50 lay within 100 to 500 nM.

As for `CCc1cc2c(s1)CCO[C@@]21CCN(C[C@H]2C[C@@H](NC(=O)C3CC(=O)C3(C)C)C2)[C@@H](C)C1` (stereo partly shown) [Compound 318], the IC50 is under 100 nM. On to `CCc1cc2c(s1)CCO[C@@]21CCN(C[C@H]2C[C@@H](NC(=O)C(O)C(C)C)C2)[C@@H](C)C1` (stereo partly shown) [Compound 319], for which the IC50 was under 100 nM. As for `CCc1cc2c(s1)CCO[C@@]21CCN(C[C@H]2C[C@@H](NC(=O)c3cnc(C)s3)C2)[C@@H](C)C1` [Compound 320], the IC50 is under 100 nM. For `CCc1cc2c(s1)CCO[C@@]21CCN(C[C@H]2C[C@@H](NC(=O)c3cn(C4CCOCC4)nn3)C2)[C@@H](C)C1` [Compound 321] the value was 100 to 500 nM; for `CCc1cc2c(s1)CCO[C@@]21CCN(C[C@H]2C[C@@H](NC(=O)CCN3CCCCC3)C2)[C@@H](C)C1` [Compound 322], 100 to 500 nM; for `CCc1cc2c(s1)CCO[C@@]21CCN(C[C@H]2C[C@@H](NC(=O)C3CC3c3ccc(F)cc3)C2)[C@@H](C)C1` (stereo partly shown) [Compound 323], under 100 nM.

For `CCc1cc2c(s1)CCO[C@@]21CCN(C[C@H]2C[C@@H](NC(=O)c3ccnc(C)n3)C2)[C@@H](C)C1` [Compound 324], the IC50 was under 100 nM.

In the case of `CCc1cc2c(s1)CCO[C@@]21CCN(C[C@H]2C[C@@H](NC(=O)C3CCC3(F)F)C2)[C@@H](C)C1` (stereo partly shown) [Compound 325], the IC50 was under 100 nM. Take `CCc1cc2c(s1)CCO[C@@]21CCN(C[C@H]2C[C@@H](NC(=O)c3cc(C)[nH]n3)C2)[C@@H](C)C1` [Compound 326]: the IC50 was under 100 nM. Regarding `CCc1cc2c(s1)CCO[C@@]21CCN(C[C@H]2C[C@@H](NC(=O)C3(c4ccc(F)cn4)CC3)C2)[C@@H](C)C1` [Compound 327], the IC50 lay within 100 to 500 nM. For `CCc1cc2c(s1)CCO[C@@]21CCN(C[C@H]2C[C@@H](NC(=O)c3ccc(C)nn3)C2)[C@@H](C)C1` [Compound 328] the value was 100 to 500 nM; for `CCc1cc2c(s1)CCO[C@@]21CCN(C[C@H]2C[C@@H](NC(=O)c3cnc(C)nc3)C2)[C@@H](C)C1` [Compound 329], 100 to 500 nM. As for `CCc1cc2c(s1)CCO[C@@]21CCN(C[C@H]2C[C@@H](NC(=O)C3(O)CCC3)C2)[C@@H](C)C1` [Compound 330], the IC50 is under 100 nM. As to `CCc1cc2c(s1)CCO[C@@]21CCN(C[C@H]2C[C@@H](NC(=O)C3CC(C(F)(F)F)C3)C2)[C@@H](C)C1` (stereo partly shown) [Compound 331], the IC50 was 100 to 500 nM. Take `CCc1cc2c(s1)CCO[C@@]21CCN(C[C@H]2C[C@@H](NC(=O)C(O)C3CC3)C2)[C@@H](C)C1` (stereo partly shown) [Compound 333]: the IC50 was under 100 nM. As to `CCc1cc2c(s1)CCO[C@@]21CCN(C[C@H]2C[C@@H](NC(=O)CC#N)C2)[C@@H](C)C1` [Compound 334], the IC50 fell in the range of 100 to 500 nM. For the compound `CCc1cc2c(s1)CCO[C@@]21CCN(C[C@H]2C[C@@H](NC(=O)C3(O)CC3)C2)[C@@H](C)C1` [Compound 335], the IC50 is under 100 nM. As to `CCc1cc2c(s1)CCO[C@@]21CCN(C[C@H]2C[C@@H](NC(=O)C(C)(C)C#N)C2)[C@@H](C)C1` [Compound 336], the IC50 fell in the range of 100 to 500 nM. `CCc1cc2c(s1)CCO[C@@]21CCN(C[C@H]2C[C@@H](NC(=O)CN3CCc4ccccc43)C2)[C@@H](C)C1` [Compound 337]: the IC50 was under 100 nM. For `CCc1cc2c(s1)CCO[C@@]21CCN(C[C@H]2C[C@@H](NC(=O)CC3CC(F)(F)C3)C2)[C@@H](C)C1` [Compound 338] the value was under 100 nM; for `CCc1cc2c(s1)CCO[C@@]21CCN(C[C@H]2C[C@@H](NC(=O)C(O)C(F)(F)F)C2)[C@@H](C)C1` (stereo partly shown) [Compound 339], under 100 nM; for `CCc1cc2c(s1)CCO[C@@]21CCN(C[C@H]2C[C@@H](NC(=O)c3ccncc3C)C2)[C@@H](C)C1` [Compound 340], under 100 nM. For `CCc1cc2c(s1)CCO[C@@]21CCN(C[C@H]2C[C@@H](NC(=O)C(C)S(C)(=O)=O)C2)[C@@H](C)C1` (stereo partly shown) [Compound 341] the value was under 100 nM; for `CCc1cc2c(s1)CCO[C@@]21CCN(C[C@H]2C[C@@H](NC(=O)CS(=O)(=O)NC)C2)[C@@H](C)C1` [Compound 342], under 100 nM. Take `CCc1cc2c(s1)CCO[C@@]21CCN(C[C@H]2C[C@@H](NC(=O)CS(C)(=O)=O)C2)[C@@H](C)C1` [Compound 343]: the IC50 was under 100 nM.

As for `CCc1cc2c(s1)CCO[C@@]21CCN(C[C@H]2C[C@@H](NC(=O)C3CC(C)(O)C3)C2)[C@@H](C)C1` (stereo partly shown) [Compound 344], the IC50 was under 100 nM. For `CCc1cc2c(s1)CCO[C@@]21CCN(C[C@H]2C[C@@H](NC(=O)c3ncccc3O)C2)[C@@H](C)C1` [Compound 345] the value was 100 to 500 nM. Take `CCc1cc2c(s1)CCO[C@@]21CCN(C[C@H]2C[C@@H](NC(=O)CC(C)(C)O)C2)[C@@H](C)C1` [Compound 346]: the IC50 was under 100 nM. Consider `CCc1cc2c(s1)CCO[C@@]21CCN(C[C@H]2C[C@@H](NC(=O)c3nnc(C)o3)C2)[C@@H](C)C1` [Compound 347], for which the IC50 lay within 100 to 500 nM. For the compound `CCc1cc2c(s1)CCO[C@@]21CCN(C[C@H]2C[C@@H](NC(=O)COC)C2)[C@@H](C)C1` [Compound 348], the IC50 lay within 100 to 500 nM. For the compound `CCc1cc2c(s1)CCO[C@@]21CCN(C[C@H]2C[C@@H](NC(=O)c3ccc(=O)[nH]n3)C2)[C@@H](C)C1` [Compound 349], the IC50 is under 100 nM. In the case of `CCc1cc2c(s1)CCO[C@@]21CCN(C[C@H]2C[C@@H](NC(=O)C3(C(N)=O)CC3)C2)[C@@H](C)C1` [Compound 350], the IC50 was in the range of 100 to 500 nM.

`CCc1cc2c(s1)CCO[C@@]21CCN(C[C@H]2C[C@@H](NC(=O)CO)C2)[C@@H](C)C1` [Compound 351]: the IC50 was in the range of 100 to 500 nM. As for `CCc1cc2c(s1)CCO[C@@]21CCN(C[C@H]2C[C@@H](NC(=O)CC3CS(=O)(=O)C3)C2)[C@@H](C)C1` [Compound 352], the IC50 is under 100 nM. For the compound `CCc1cc2c(s1)CCO[C@@]21CCN(C[C@H]2C[C@@H](NC(=O)CNS(=O)(=O)CC)C2)[C@@H](C)C1` [Compound 353], the IC50 was under 100 nM. For `CCc1cc2c(s1)CCO[C@@]21CCN(C[C@H]2C[C@@H](NC(=O)Cn3cncn3)C2)[C@@H](C)C1` [Compound 354], the IC50 lay within 100 to 500 nM.

For the compound `CCc1cc2c(s1)CCO[C@@]21CCN(C[C@H]2C[C@@H](NC(=O)C3CCN(C(C)=O)CC3)C2)[C@@H](C)C1` [Compound 355], the IC50 is under 100 nM.
